Experimental data from US11331271B2, “Buccal, sublingual and intranasal delivery of fospropofol” (The Johns Hopkins University, priority 2016, dated 2022).

System: healthy volunteers
Assay: Human Study 2: treatment-emergent adverse events (TEAE), safety, Modified OAA/S, DSST, BIS
Type: in vivo
Conditions: for DSST mean change from baseline: 1 h post-treatment
Description: In human study 1, fospropofol disodium was formulated as a sterile aqueous solution at a concentration of 20 mg/mL. Each vial provided contained 20 mL of solution, suitable for intravenous injection. Fospropofol was administered as a single dose of 400 mg orally, directly into the duodenum by gastroscopy or intravenously over 10 min. In human study 2, fospropofol disodium in capsules (200 mg) or matching placebo was administered orally.
A second single ascending dose study was subsequently performed to assess the safety, tolerability, and pharmacokinetics of oral administration of fospropofol as a capsule. This was a double-blind, randomized, crossover, placebo-controlled, single ascending dose study. Ten healthy volunteers were enrolled, 6 males and 4 females between 18 and 45 years of age inclusive with a body mass index between 18 and 28 kg/m^2. Each subject received four ascending oral doses of fospropofol disodium (200, 600, 1,000 and 1,200 mg) and one of placebo. Placebo was administered randomly, in one of the five periods. Subjects stayed in the clinical research unit over 3 days per treatment for five consecutive treatments. Between treatments, there were wash-out periods of at least 6 days, during which interim safety evaluations were made to assess the safety of the subsequent higher doses. Fopropofol disodium in capsules (200 mg) or matching placebo was administered orally. Pharmacokinetic parameters, safety and pharmacodynamic effect were assessed in a manner similar to that in Study 1 described above. In addition, the digit symbol substitution test (DSST) and BIS Index (a commercially available EEG derived measure of anesthesia and sedation, Coviden, Mansfield, Mass., USA) were added as additional pharmacodynamics measures.

[1] = 1000 mg oral, listed as Fospropofol
[2] = 1200 mg oral, listed as Fospropofol

CC(C)c1cccc(C(C)C)c1OCOP(=O)(O)O [fospropofol]
TEAE NERVOUS SYSTEM DISORDERS, events (E) (1000 mg oral): 14
TEAE NERVOUS SYSTEM DISORDERS, subjects (%) (1000 mg oral): (70%)
TEAE REPRODUCTIVE SYSTEM AND BREAST DISORDERS, subjects (%) (1000 mg oral): (10%)
TEAE RESPIRATORY THORACIC AND MEDIASTINAL DISORDERS, subjects (%) (1000 mg oral): (10%)
TEAE TOTAL, events (E) (1000 mg oral): 28
TEAE TOTAL, subjects (%) (1000 mg oral): 80%
TEAE VASCULAR DISORDERS, events (E) (1000 mg oral): 4
TEAE VASCULAR DISORDERS, subjects (%) (1000 mg oral): (30%)
TEAE dysphagia, subjects (%) (1000 mg oral): (10%)
TEAE fatigue, subjects (%) (1000 mg oral): (10%)
TEAE feeling hot, subjects (%) (1000 mg oral): (20%)
TEAE headache, subjects (%) (1000 mg oral): (20%)
TEAE nausea, subjects (%) (1000 mg oral): (30%)
TEAE palpitations, subjects (%) (1000 mg oral): (10%)
TEAE paraesthesia oral, subjects (%) (1000 mg oral): (10%)
TEAE paraesthesia, events (E) (1000 mg oral): 7
TEAE paraesthesia, subjects (%) (1000 mg oral): (60%)
TEAE perineal pain, subjects (%) (1000 mg oral): (10%)
TEAE phlebitis superficial, events (E) (1000 mg oral): 4
TEAE phlebitis superficial, subjects (%) (1000 mg oral): (30%)
TEAE somnolence, subjects (%) (1000 mg oral): 40%
TEAE throat irritation, subjects (%) (1000 mg oral): (10%)
subjects with somnolence considered severe (1000 mg oral): 1
TEAE TOTAL, subjects (%) [1]: (80%)
TEAE somnolence, subjects (%) [1]: (40%)
DSST mean change from baseline (1,000 mg): −11
lowest Modified OAA/S score (1,000 mg, Subject 003, 1 and 1.5 h after treatment): 3
BIS score range (1,200 mg): 70-98%
TEAE GASTROINTESTINAL DISORDERS, subjects (%) (1200 mg oral): (30%)
TEAE GENERAL DISORDERS AND ADMINISTRATION SITE CONDITIONS, events (E) (1200 mg oral): 6
TEAE GENERAL DISORDERS AND ADMINISTRATION SITE CONDITIONS, subjects (%) (1200 mg oral): (30%)
TEAE INFECTIONS AND INFESTATIONS, subjects (%) (1200 mg oral): (14%)
TEAE NERVOUS SYSTEM DISORDERS, events (E) (1200 mg oral): 13
TEAE NERVOUS SYSTEM DISORDERS, subjects (%) (1200 mg oral): (90%)
TEAE PSYCHIATRIC DISORDERS, subjects (%) (1200 mg oral): (10%)
TEAE REPRODUCTIVE SYSTEM AND BREAST DISORDERS, subjects (%) (1200 mg oral): (10%)
TEAE RESPIRATORY THORACIC AND MEDIASTINAL DISORDERS, subjects (%) (1200 mg oral): (10%)
TEAE TOTAL, events (E) (1200 mg oral): 26
TEAE TOTAL, subjects (%) (1200 mg oral): 90%
TEAE VASCULAR DISORDERS, subjects (%) (1200 mg oral): (10%)
TEAE defecation urgency, subjects (%) (1200 mg oral): (10%)
TEAE dyspnoea, subjects (%) (1200 mg oral): (10%)
TEAE euphoric mood, subjects (%) (1200 mg oral): (10%)
TEAE fatigue, subjects (%) (1200 mg oral): (10%)
TEAE feeling hot, events (E) (1200 mg oral): 4
TEAE feeling hot, subjects (%) (1200 mg oral): (30%)
TEAE headache, subjects (%) (1200 mg oral): (10%)
TEAE nausea, subjects (%) (1200 mg oral): (20%)
TEAE paraesthesia oral, subjects (%) (1200 mg oral): (10%)
TEAE paraesthesia, subjects (%) (1200 mg oral): (30%)
TEAE perineal pain, subjects (%) (1200 mg oral): (10%)
TEAE somnolence, subjects (%) (1200 mg oral): 80%
TEAE vein pain, subjects (%) (1200 mg oral): (10%)
subjects with somnolence considered severe (1200 mg oral): 1
TEAE TOTAL, subjects (%) [2]: (90%)
TEAE somnolence, subjects (%) [2]: (80%)
subjects with Modified OAA/S score of 4 (1,200 mg, 1.5-h time point): 40%
DSST mean change from baseline (1,200 mg): −13
laboratory values, vital signs, ECGs, physical examinations (200-1,200 mg oral): no changes
serious adverse events (200-1,200 mg oral): No subject experienced a SAE
severity of most TEAEs (Study 2): mild or moderate
nausea, rate of occurrence (Study 2, all treatments): 50%
paresthesia, rate of occurrence (Study 2, all treatments): 60%
phlebitis superficial, rate of occurrence (Study 2, all treatments): 50%
mean BIS scores (all time points, all treatments): > 90%
subjects with Modified OAA/S score of 5 (at most time points, each treatment group): ≥ 80%
